# Source: ChEMBL document CHEMBL3286379, “Design and synthesis of pyrimidine molecules endowed with thiazolidin-4-one as new anticancer agents” (Eur J Med Chem, 2014)
# Columns and labels:
# [1] = system: CCRF-CEM; test: Growth inhibition of human CCRF-CEM cells after 48 hrs by sulforhodamine B assay; type: functional
# [2] = system: SR; test: Growth inhibition of human SR cells after 48 hrs by sulforhodamine B assay; type: functional
# [3] = system: HOP-62; test: Growth inhibition of human HOP62 cells after 48 hrs by sulforhodamine B assay; type: functional; conditions: HOP-62, 48 h
# [4] = system: NCI-H522; test: Growth inhibition of human NCI-H522 cells after 48 hrs by sulforhodamine B assay; type: functional; conditions: NCI-H522, 48 h
# [5] = system: COLO 205; test: Growth inhibition of human COLO205 cells after 48 hrs by sulforhodamine B assay; type: functional; conditions: COLO 205, 48 h
# [6] = Growth inhibition of human HCT15 cells after 48 hrs by sulforhodamine B assay; type: functional; conditions: HCT-15, 48 h
# [7] = system: KM12; test: Growth inhibition of human KM12 cells after 48 hrs by sulforhodamine B assay; type: functional; conditions: KM12, 48 h
# [8] = system: SNB-19; test: Growth inhibition of human SNB19 cells after 48 hrs by sulforhodamine B assay; type: functional; conditions: SNB-19, 48 h
# [9] = system: Malme-3M; test: Growth inhibition of human MALME-3M cells after 48 hrs by sulforhodamine B assay; type: functional
# [10] = system: MDA-MB-435; test: Growth inhibition of human MDA-MB-435 cells after 48 hrs by sulforhodamine B assay; type: functional; conditions: MDA-MB-435, 48 h
# [11] = system: SK-MEL-2; test: Growth inhibition of human SK-MEL-2 cells after 48 hrs by sulforhodamine B assay; type: functional; conditions: SK-MEL-2, 48 h
# [12] = system: IGROV-1; test: Growth inhibition of human IGROV1 cells after 48 hrs by sulforhodamine B assay; type: functional; conditions: IGROV-1, 48 h
# [13] = Growth inhibition of human NCI-ADR-RES cells after 48 hrs by sulforhodamine B assay; type: functional
# [14] = system: 786-0; test: Growth inhibition of human 786-0 cells after 48 hrs by sulforhodamine B assay; type: functional; conditions: 786-0, 48 h
# [15] = system: A498; test: Growth inhibition of human A498 cells after 48 hrs by sulforhodamine B assay; type: functional; conditions: A498, 48 h
# [16] = system: DU-145; test: Growth inhibition of human DU145 cells after 48 hrs by sulforhodamine B assay; type: functional; conditions: DU-145, 48 h
# [17] = system: MDA-MB-231; test: Growth inhibition of human MDA-MB-231 cells after 48 hrs by sulforhodamine B assay; type: functional; conditions: MDA-MB-231, 48 h
# [18] = Growth inhibition of human Hs 578T cells after 48 hrs by sulforhodamine B assay; type: functional
# [19] = Growth inhibition of human BT549 cells after 48 hrs by sulforhodamine B assay; type: functional; conditions: BT-549, 48 h
# [20] = system: T47D; test: Growth inhibition of human T47D cells after 48 hrs by sulforhodamine B assay; type: functional
# [21] = system: Rattus norvegicus; test: Hepatotoxicity in rat assessed as SGOT level at 0.12 mg/kg, po after 12 days (reference value: 140.23 +/- 1.39 U/mL); type: toxicity, organism-based; parameters: dose 0.12 mg/kg, route oral; conditions: in vivo, 288 h
# [22] = read-out: LC50 (the source's name)
# [23] = read-out: pLC50 (the source's name) (converted)
structure (smiles),measurement,setting,value
Nc1nc(-c2ccccc2Cl)cc(-c2ccc(Cl)cc2Cl)n1,GI50,[1]; read-out: GI50,4.17 µM
same,CC50,[1]; [22],> 100 µM
same,TGI,[1]; read-out: TGI,> 100 µM
same,GI50,[1]; read-out: pGI50 (converted),4.17 µM
same,CC50,[1]; [23],> 100 µM
same,TGI,[1]; read-out: pTGI,> 100 µM
same,GI50,[2]; read-out: GI50,4.1 µM
same,CC50,[2]; [22],> 100 µM
same,TGI,[2]; read-out: TGI,> 100 µM
same,GI50,[2]; read-out: pGI50 (converted),4.07 µM
same,CC50,[2]; [23],> 100 µM
same,TGI,[2]; read-out: pTGI,> 100 µM
same,GI50,[3]; read-out: GI50,8.21 µM
same,CC50,[3]; [22],> 100 µM
same,TGI,[3]; read-out: TGI,> 100 µM
same,GI50,[3]; read-out: pGI50 (converted),8.13 µM
same,CC50,[3]; [23],> 100 µM
same,TGI,[3]; read-out: pTGI,> 100 µM
same,GI50,[4]; read-out: GI50,3.27 µM
same,CC50,[4]; [22],> 100 µM
same,TGI,[4]; read-out: TGI,23.3 µM
same,GI50,[4]; read-out: pGI50 (converted),3.31 µM
same,CC50,[4]; [23],> 100 µM
same,TGI,[4]; read-out: pTGI (converted),23.4 µM
same,GI50,[5]; read-out: GI50,3.52 µM
same,CC50,[5]; [22],53 µM
same,TGI,[5]; read-out: TGI,15.5 µM
same,GI50,[5]; read-out: pGI50 (converted),3.55 µM
same,CC50,[5]; [23],52.5 µM
same,TGI,[5]; read-out: pTGI (converted),15.5 µM
same,GI50,[6]; read-out: GI50,5.09 µM
same,CC50,[6]; [22],> 100 µM
same,TGI,[6]; read-out: TGI,> 100 µM
same,GI50,[6]; read-out: pGI50 (converted),5.13 µM
same,CC50,[6]; [23],> 100 µM
same,TGI,[6]; read-out: pTGI,> 100 µM
same,GI50,[7]; read-out: GI50,4.1 µM
same,CC50,[7]; [22],> 100 µM
same,TGI,[7]; read-out: TGI,31.3 µM
same,GI50,[7]; read-out: pGI50 (converted),4.07 µM
same,CC50,[7]; [23],> 100 µM
same,TGI,[7]; read-out: pTGI (converted),30.9 µM
same,GI50,[8]; read-out: GI50,16.1 µM
same,CC50,[8]; [22],> 100 µM
same,TGI,[8]; read-out: TGI,> 100 µM
same,GI50,[8]; read-out: pGI50 (converted),16.2 µM
same,CC50,[8]; [23],> 100 µM
same,TGI,[8]; read-out: pTGI,> 100 µM
same,GI50,[9]; read-out: GI50,17.7 µM
same,CC50,[9]; [22],> 100 µM
same,TGI,[9]; read-out: TGI,> 100 µM
same,GI50,[9]; read-out: pGI50 (converted),17.8 µM
same,CC50,[9]; [23],> 100 µM
same,TGI,[9]; read-out: pTGI,> 100 µM
same,GI50,[10]; read-out: GI50,1.97 µM
same,CC50,[10]; [22],> 100 µM
same,TGI,[10]; read-out: TGI,4.93 µM
same,GI50,[10]; read-out: pGI50 (converted),1.95 µM
same,CC50,[10]; [23],> 100 µM
same,TGI,[10]; read-out: pTGI (converted),4.9 µM
same,GI50,[11]; read-out: GI50,6.1 µM
same,CC50,[11]; [22],> 100 µM
same,TGI,[11]; read-out: TGI,44.7 µM
same,GI50,[11]; read-out: pGI50 (converted),6.17 µM
same,CC50,[11]; [23],> 100 µM
same,TGI,[11]; read-out: pTGI (converted),44.7 µM
same,GI50,[12]; read-out: GI50,12.3 µM
same,CC50,[12]; [22],> 100 µM
same,TGI,[12]; read-out: TGI,> 100 µM
same,GI50,[12]; read-out: pGI50 (converted),12.3 µM
same,CC50,[12]; [23],> 100 µM
same,TGI,[12]; read-out: pTGI,> 100 µM
same,GI50,[13]; read-out: GI50,14.8 µM
same,CC50,[13]; [22],> 100 µM
same,TGI,[13]; read-out: TGI,> 100 µM
same,GI50,[13]; read-out: pGI50 (converted),14.8 µM
same,CC50,[13]; [23],> 100 µM
same,TGI,[13]; read-out: pTGI,> 100 µM
same,GI50,[14]; read-out: GI50,20.2 µM
same,CC50,[14]; [22],> 100 µM
same,TGI,[14]; read-out: TGI,> 100 µM
same,GI50,[14]; read-out: pGI50 (converted),20.4 µM
same,CC50,[14]; [23],> 100 µM
same,TGI,[14]; read-out: pTGI,> 100 µM
same,GI50,[15]; read-out: GI50,3.34 µM
same,CC50,[15]; [22],> 100 µM
same,TGI,[15]; read-out: TGI,22.8 µM
same,GI50,[15]; read-out: pGI50 (converted),3.31 µM
same,CC50,[15]; [23],> 100 µM
same,TGI,[15]; read-out: pTGI (converted),22.9 µM
same,GI50,[16]; read-out: GI50,5.33 µM
same,CC50,[16]; [22],> 100 µM
same,TGI,[16]; read-out: TGI,70.1 µM
same,GI50,[16]; read-out: pGI50 (converted),5.37 µM
same,CC50,[16]; [23],> 100 µM
same,TGI,[16]; read-out: pTGI (converted),70.8 µM
same,GI50,[17]; read-out: GI50,9.3 µM
same,CC50,[17]; [22],> 100 µM
same,TGI,[17]; read-out: TGI,> 100 µM
same,GI50,[17]; read-out: pGI50 (converted),9.33 µM
same,CC50,[17]; [23],> 100 µM
same,TGI,[17]; read-out: pTGI,> 100 µM
same,GI50,[18]; read-out: GI50,6.04 µM
same,CC50,[18]; [22],> 100 µM
same,TGI,[18]; read-out: TGI,60.7 µM
same,GI50,[18]; read-out: pGI50 (converted),6.03 µM
same,CC50,[18]; [23],> 100 µM
same,TGI,[18]; read-out: pTGI (converted),60.3 µM
same,GI50,[19]; read-out: GI50,13.8 µM
same,CC50,[19]; [22],> 100 µM
same,TGI,[19]; read-out: TGI,> 100 µM
same,GI50,[19]; read-out: pGI50 (converted),13.8 µM
same,CC50,[19]; [23],> 100 µM
same,TGI,[19]; read-out: pTGI,> 100 µM
same,GI50,[20]; read-out: GI50,6.58 µM
same,CC50,[20]; [22],> 100 µM
same,TGI,[20]; read-out: TGI,> 100 µM
same,GI50,[20]; read-out: pGI50 (converted),6.61 µM
same,CC50,[20]; [23],> 100 µM
same,TGI,[20]; read-out: pTGI,> 100 µM
same,Activity,[21],133.47 U/ml
